This is an account of results in US9511010B2, “Compounds useful in the treatment and/or care of the skin, hair and/or mucous membranes and their cosmetic or pharmaceutical compositions” (Lubrizol Advanced Materials, Inc., priority 2012, dated 2016).

Assay [1] concerns FOXO response elements. Put plainly: Stimulation of the expression of proteins regulated by FOXO: luciferase reporter under FOXO response elements. The format is cell-based, human. The note with it: 0.5 mg/mL, 24 hours; carrier (0.05% DMSO) = 100. The protocol: The activation capacity of the FOXO response elements was evaluated in a human epithelial cell line stably transfected with the luciferase gene under the control of a regulatory sequence which contains different FOXO response elements which are in the promoters of the FOXO target genes. The activation capacity of the FOXO response elements indicates the expression of proteins regulated by FOXO. 30,000 cells per well were seeded in a total volume of 100 μL of RPMI 1640 culture medium. After 24 hours the cells with RPMI 1640 culture medium were washed and were incubated with the compounds of the invention at 0.5 mg/mL for 24 hours in a total volume of 100 μL per well. The carrier in which the compounds of the invention were dissolved was used (0.05% DMSO) as a negative control.
The measurement of the activity of the promoter was carried out using the Steady-Go Luciferase Assay System kit following the manufacturer's instructions. The luminescence values (RLU/sec) caused by the reaction between luciferase and the substrate were quantified with a luminometer and normalized by the cell number (absorbance at 630 nm), and the activity of the promoter was determined, which was standardized with regard to the negative control values.
(§1) Each experiment was carried out three times in 3 independent experiments.

The test system of assay [2] is HEKa primary keratinocytes. Put plainly: Host cell reactivation (HCR) assay, activation of DNA repair in primary keratinocytes. Format: cell-based, human. To be noted: 24 hours, basal = 100. On the procedure: The host cell reactivation (HCR) assay was used in HEKa primary keratinocytes to evaluate the capacity of the peptides of the invention to repair the damage to the DNA in a biologically functional way. 40,000 cells per well were seeded and they were co-transfected with a control plasmid which constitutively expresses the Firefly luciferase gene (pGL3), previously damaged by UVC, and with an undamaged plasmid which constitutively expresses the Renilla luciferase gene (vector pRluc-N1(h)).
Subsequently the cells were incubated with the compounds of the invention at 0.025 mg/mL and 0.5 mg/mL in EpiLife medium for 24 hours, after which the luminescence due to the activity of the Firefly and Renilla luciferases was measured using the Dual-Go Luciferase Assay System kit following the manufacturer's instructions. The carrier in which the compounds of the invention (EpiLife medium) were dissolved was used as a negative control. The activation percentage of the DNA repair for each sample was calculated standardizing the luminescence values of the Firefly luciferase with regard to the Renilla luciferase, subsequently standardizing with regard to the values of the negative control.
as §1

With “Ac-L-Tyr-L-Tyr-L-Pro-L-Lys-L-Gln-L-Val-NH2 (Ac-YYPKQV-NH2) [Ac-SEQ ID NO: 42-NH2]”, the “Stimulation Average (%) of the activation of the FOXO response factors” value (shortened to “Stimulation Average (%)”) in assay [1] is 133%. Turning to “Ac-L-Tyr-L-Asn-L-Lys-Gly-L-Gln-L-Val-NH2 (Ac-YNKGQV-NH2) [Ac-SEQ ID NO: 1-NH2]”, the “Stimulation Average (%)” value in assay [1] is recorded as 143%. For the same substance, the “Activation Average (%) of DNA repair, HCR assay” value (shortened to “Activation Average (%)”) in assay [2] (0.025 mg/mL) was 150%; in assay [2] (0.5 mg/mL) it was 290%. For “Ac-L-Tyr-L-Glu-L-Ser-Gly-L-Gln-L-Val-NH2 (Ac-YESGQV-NH2) [Ac-SEQ ID NO: 16-NH2]”, in assay [1], the “Stimulation Average (%)” value came to 119%.

Consider “Ac-L-Tyr-L-Asn-L-Ser-L-Lys-L-Gln-L-Val-NH2 (Ac-YNSKQV-NH2) [Ac-SEQ ID NO: 27-NH2]”, for which, in assay [1], the “Stimulation Average (%)” value was 128%.

On to “Ac-L-Tyr-L-His-L-Pro-L-His-L-Gln-L-Val-NH2 (Ac-YHPHQV-NH2) [Ac-SEQ ID NO: 28-NH2]”, for which, in assay [1], the “Stimulation Average (%)” value was determined as 125%. For the substance “Ac-L-Tyr-L-Asn-L-Lys-L-Leu-L-Gln-L-Val-NH2 (Ac-YNKLQV-NH2) [Ac-SEQ ID NO: 21-NH2]”, the “Stimulation Average (%)” value in assay [1] is listed as 157%. For the same substance, the results for the “Activation Average (%)” value in assay [2] (0.025 mg/mL) and in assay [2] (0.5 mg/mL) were 231% and 357%, respectively. On to “Ac-L-Tyr-L-Asn-L-Pro-L-His-L-Gln-L-Val-NH2 (Ac-YNPHQV-NH2) [Ac-SEQ ID NO: 18-NH2]”, for which, in assay [1], the “Stimulation Average (%)” value came out at 148%. As for “Ac-L-Tyr-L-Glu-L-Ser-L-His-L-Gln-L-Val-NH2 (Ac-YESHQV-NH2) [Ac-SEQ ID NO: 19-NH2]”, the “Stimulation Average (%)” value in assay [1] amounted to 145%. Further, the entries for the “Activation Average (%)” value in assay [2] (0.025 mg/mL) and in assay [2] (0.5 mg/mL) were 191% and 304%, respectively. Take “Ac-L-Tyr-L-Tyr-L-Ser-L-His-L-Gln-L-Val-NH2 (Ac-YYSHQV-NH2) [Ac-SEQ ID NO: 20-NH2]”: the “Stimulation Average (%)” value in assay [1] is listed as 157%. Regarding “Ac-L-Tyr-L-Tyr-L-Lys-L-Leu-L-Gln-L-Val-NH2 (Ac-YYKLQV-NH2) [Ac-SEQ ID NO: 23-NH2]”, the “Stimulation Average (%)” value in assay [1] is 174%.

With “Ac-L-Tyr-L-Asn-L-Ser-L-His-L-Gln-L-Val-NH2 (Ac-YNSHQV-NH2) [Ac-SEQ ID NO: 41-NH2]”, in assay [1], the “Stimulation Average (%)” value is 129%.

In the case of “Ac-L-Tyr-L-Glu-L-Ser-L-Lys-L-Gln-L-Val-NH2 (Ac-YESKQV-NH2) [Ac-SEQ ID NO: 24-NH2]”, in assay [1], the “Stimulation Average (%)” value was found to be 133%. Moreover, the “Activation Average (%)” value in assay [2] (0.025 mg/mL) was 295%; in assay [2] (0.5 mg/mL), 271%. As for “Ac-L-Tyr-L-His-L-Lys-L-Leu-L-Gln-L-Val-NH2 (Ac-YHKLQV-NH2) [Ac-SEQ ID NO: 25-NH2]”, the “Stimulation Average (%)” value in assay [1] was found to be 168%.

For the substance “Ac-L-Tyr-L-His-L-Ser-L-Lys-L-Gln-L-Val-NH2 (Ac-YHSKQV-NH2) [Ac-SEQ ID NO: 26-NH2]”, the “Stimulation Average (%)” value in assay [1] is given as 124%. Still for that read-out and setting: under “Ac-L-Tyr-L-His-L-Ser-L-His-L-Gln-L-Val-NH2 (Ac-YHSHQV-NH2) [Ac-SEQ ID NO: 30-NH2]” stands 138%. Same read-out and setting: then “Ac-L-Tyr-L-Glu-L-Pro-L-His-L-Gln-L-Val-NH2 (Ac-YEPHQV-NH2) [Ac-SEQ ID NO: 40-NH2]”, with 131%; and “Ac-L-Tyr-L-Asn-L-Lys-L-Lys-L-Gln-L-Val-NH2 (Ac-YNKKQV-NH2) [Ac-SEQ ID NO: 8-NH2]”, with 106%. Still for that read-out and setting: under “Ac-L-Tyr-L-Tyr-L-Pro-L-His-L-Gln-L-Val-NH2 (Ac-YYPHQV-NH2) [Ac-SEQ ID NO: 29-NH2]” stands 120%.
